Results on 24 molecules are retold here after US20260103471A1, “CYCLIC UREA THIAZOLYL COMPOUNDS FOR TREATMENT OF HSV” (Assembly Biosciences, Inc., priority 2022, published 2026).

Structures are written as SMILES. Bounds are passed on as bounds.

The subject of the assay is HSV-1. As to the kind of experiment: HSV-1 Antiviral Assay (Vero cells, cell viability). In kind it is cell-based. The following applies: Human alphaherpesvirus 1, 96 h; Vero cells, 80 TCID50 HSV-1, 4 days, cell viability; read-out: HSV-1 EC50. As to the method:
Vero cells were cultured in Dulbecco's Modified Eagle Medium (DMVEM) supplemented with […] and 100 units/mL penicillin and streptomycin. The cells were passaged 2-3 times per week to maintain sub-confluent densities.
Vero cells were seeded into 96-well plates at a density of 2.5×10^3 cells per well and allowed to attach overnight. Following attachment, the media was replaced with 50 μL of infection medium (DMVEM supplemented with 2% fetal bovine serum and 100 units/mL penicillin and streptomycin). A Tecan D300e digital dispenser was then used to add compounds to the culture using an 8-point 3-fold serial dilution format. The DMSO concentration was normalized to 0.5% for all treatments. Following compound addition, 50 μL of infection medium containing 80 TCID50 HSV-1 was added to the cells and incubated at 37° C. for 4 days. After the incubation, the plates were equilibrated to room temperature, the media was removed, and […] a 1:1 dilution of Cell titer glow and phosphate buffered saline was added to the cells. Following a 5-minute incubation, cell viability was quantified by measuring luminance using a Tecan Infinite M1000 Pro plate reader.
Turning to `CC[S@@](=N)(=O)c1sc(N2CCCN(c3ccc(-c4cc(F)ccc4F)cc3)C2=O)nc1C` (single isomer, unassigned) [Compound 149], the EC50 was 100 to 1000 nM.

Consider `CC[S@](=N)(=O)c1sc(N2CCCN(c3ccc(-c4cc(F)ccc4F)cc3)C2=O)nc1C` (single isomer, unassigned) [Compound 150], for which the EC50 was less than 100 nM.

`Cc1nc(N2CC3(CC3)CN(c3ccc(-c4ccccc4F)cc3)C2=O)sc1[S@](C)(=N)=O` (single isomer, unassigned) [Compound 159]: the EC50 was 100 to 1000 nM.

Regarding `Cc1nc(N2CC3(CC3)CN(c3ccc(-c4ccccc4F)cc3)C2=O)sc1[S@@](C)(=N)=O` (single isomer, unassigned) [Compound 160], the EC50 was in the range of 100 to 1000 nM.

On to `Cc1nc(N2CCCN([C@@H](C)c3cccc(-c4ccccc4F)c3)C2=O)sc1S(N)(=O)=O` (single isomer, unassigned) [Compound 179], for which the EC50 lay in the range of 1000 to 5000 nM.

Regarding `Cc1nc(N2CCCN(c3ccc(-c4cccc(C(F)(F)F)c4)cc3)C2=O)sc1S(N)(=O)=O` [Compound 15], the EC50 was in the range of 100 to 1000 nM.

Turning to `C#Cc1cc(F)c(-c2ccc(N3CCCN(c4nc(C)c(S(N)(=O)=O)s4)C3=O)cc2)cc1F` [Compound 29], the EC50 lay within 1000 to 5000 nM.

Consider `Cc1nc(N2CCCN(c3ccc(-c4cccc(N)n4)cc3)C2=O)sc1S(N)(=O)=O` [Compound 33], for which the EC50 fell in the range of 100 to 1000 nM.

Consider `Cc1nc(N2CCCN(c3ccc(-c4cccc(NC(=O)OC(C)(C)C)n4)cc3)C2=O)sc1S(N)(=O)=O` [Compound 34], for which the EC50 lay in the range of 100 to 1000 nM.

Take `Cc1nc(N2CCCN(c3ccc(-c4cnccn4)cc3)C2=O)sc1S(N)(=O)=O` [Compound 39]: the EC50 is 100 to 1000 nM.

Take `Cc1cnc(-c2ccc(N3CCCN(c4nc(C)c(S(N)(=O)=O)s4)C3=O)cc2)s1` [Compound 44]: the EC50 was in the range of 1000 to 5000 nM.

`Cc1nc(N2CCCN(c3ccc(-c4nc(C(F)(F)F)cs4)cc3)C2=O)sc1S(N)(=O)=O` [Compound 46]: the EC50 lay within 100 to 1000 nM.

As to `Cc1nc(N2CCCN(c3ccc(-c4nnco4)cc3)C2=O)sc1S(N)(=O)=O` [Compound 51, 2-(3-(4-(1,3,4-oxadiazol-2-yl)phenyl)-2-oxotetrahydropyrimidin-1(2H)-yl)-4-methylthiazole-5-sulfonamide], the EC50 was in the range of 1000 to 5000 nM.

With `Cc1nc(N2CCCN(c3ccc(-c4cccc5cn(C)nc45)cc3)C2=O)sc1S(N)(=O)=O` [Compound 53], the EC50 lay in the range of 100 to 1000 nM.

With `Cc1nc(N2CCCN(c3ccc(-c4cccc5c4ncn5C)cc3)C2=O)sc1S(N)(=O)=O` [Compound 61], the EC50 is 100 to 1000 nM.

On to `Cc1nc(N2CCCN(c3ccc(-c4cccc5ncn(C)c45)cc3)C2=O)sc1S(N)(=O)=O` [Compound 62], for which the EC50 fell in the range of 1000 to 5000 nM.

`Cc1nc(N2CCCN(c3ccc(-c4cccc5cnn(C)c45)cc3)C2=O)sc1S(N)(=O)=O` [Compound 63]: the EC50 is less than 100 nM.

For `Cc1nc(N2CCCN(c3ccc(-c4cccc5c4ccn5C)cc3)C2=O)sc1S(N)(=O)=O` [Compound 66], the EC50 is less than 100 nM.

On to `Cc1nc(N2CCCN(c3ccc(-c4cccc5scnc45)cc3)C2=O)sc1S(N)(=O)=O` [Compound 71, 2-(3-(4-(Benzo[d]thiazol-4-yl)phenyl)-2-oxotetrahydropyrimidin-1(2H)-yl)-4-methylthiazole-5-sulfonamide], for which the EC50 is less than 100 nM.

On to `Cc1nc(N2CCCN(c3ccc(-c4cccc5c4CC(=O)N5)cc3)C2=O)sc1S(N)(=O)=O` [Compound 76], for which the EC50 is 1000 to 5000 nM.

On to `Cc1nc(N2CCCN(c3ccc(-c4cccc5cccnc45)cc3)C2=O)sc1S(N)(=O)=O` [Compound 82], for which the EC50 fell in the range of 100 to 1000 nM.

For the molecule `Cc1nc(N2CCCN(c3ccc(-c4cccc5ccncc45)cc3)C2=O)sc1S(N)(=O)=O` [Compound 83], the EC50 is less than 100 nM.

`Cc1nc(N2CCCN(c3ccc(-c4nc5ccccc5o4)cc3)C2=O)sc1S(N)(=O)=O` [Compound 87]: the EC50 was 1000 to 5000 nM.

`Cc1nc(N2CCCN(c3ccc(-c4n[nH]c5ccccc45)cc3)C2=O)sc1S(N)(=O)=O` [Compound 91]: the EC50 is 100 to 1000 nM.

One may read the EC50 as the concentration needed to bring the measured effect to its halfway point.
